Experimental data taken from patent US12173089B2, “Inhibition of pulmonary fibrosis with nutlin-3A and peptides” (BOARD OF REGENTS, THE UNIVERSITY OF TEXAS SYSTEM, priority 2013, dated 2024).

Experiments:
[1] = system: LPS-stimulated neutrophils and macrophages; settings: cited from earlier work
[2] = system: LPS-induced ALI; settings: mice; cited from earlier work
[3] = system: fibroblasts isolated from the lungs of mice; assay: Western blotting and quantitative RT-PCR of fibroblasts isolated from lungs of treated BLM mice; type: in vivo; settings: fibroblasts from BLM mice treated with nutlin-3a
Procedure: FIGS. 12A-12C. CSP-4 or nutlin-3a (NTL) inhibits proliferation of FL-fibroblasts. Mice were exposed to BLM for 14 d to induce significant lung fibrosis or to saline (fibrosis controls). 14 d later, mice exposed to BLM were treated with CSP-4 or CP, or nutlin-3a (see FIGS. 10A-10D/11A-11D). (FIG. 12A): Lung sections (d 21 after BLM injury) were subjected to immunohistochemistry (IHC) for Ki-67 to assess proliferation. One representative example is shown (n=9). Fibroblasts were isolated from the lungs of mice exposed to saline, BLM or BLM+nutlin-3a (as described in FIG. 11A) were tested for the changes in expression of col-I, p53 and downstream uPA and PAI-1 proteins by Western blotting (FIG. 12B):, and mRNA by quantitative RT-PCR (FIG. 12C).
Mice exposed to BLM 14 days earlier were treated with CSP-4 or its control (CP) or Nutlin-3a IV (as in Examples IX and X). Seven days later lung sections were obtained and subjected to IHC for Ki-67 to assess cell proliferation (see FIG. 12A). […] Fibroblasts isolated from the lungs of these animals (as described in Example X) were tested for the changes in expression of col-I, p53 and downstream uPA and PAI-1 proteins by Western blotting, and mRNA by quantitative RT-PCR (see FIGS. 12B-12C).

[4] = system: ATII cell; settings: BLM- or cigarette smoke-induced; cited from earlier work

Compound | NF-κB DNA-binding activity [1] | production of proinflammatory cytokines [1] | severity of LPS-induced ALI [2] | PAI-1 protein and mRNA expression [3] | col-I protein and mRNA expression [3] | p53 protein [3] | uPA protein and mRNA expression [3] | ATII cell apoptosis [4] | ATII cell p53 expression [4]
COc1ccc(C2=NC(c3ccc(Cl)cc3)C(c3ccc(Cl)cc3)N2C(=O)N2CCNC(=O)C2)c(OC(C)C)c1 (stereo not drawn) [nutlin-3a, 4-2-4,5-dihydro-1H-imidazole-1-piperazin-2-one] | attenuated | attenuated | reduced | marked induction | significant suppressed | marked induction | significant suppressed |  | 
FTTFTVT [CSP-4] |  |  |  |  |  |  |  | inhibited | inhibited
